One block for each compound: values may come before it.
Legend:
[1] = system: GABAA and GABAB receptors; assay: Light-induced IPSCs in rdLS neurons after stimulation of CRH+ fibers from ILA expressing Channelrhodopsin; type: cell-based, mice; details: 2µM SR 95531 and 1µM CGP 55845 applied together; neurons held at +10 mV
Procedure: The inventors prepared coronal brain slices from 8- to 12-week-old C57BL6/J mice. […] Brains were cut into 400 µm slices with a vibratome (VT1200S, Leica) in the same ice-cold dissection solution. Slices were then transferred to an incubation chamber containing the same ACSF solution. The chamber was kept at 34°C for 30 min and then at room temperature for at least 1 h before recording. All experiments were performed at room temperature. Slices were mounted in the recording chamber under a microscope. Recordings were acquired using the Multiclamp 700A amplifier (Molecular Device), data acquisition interface ITC-18 (Instrutech) and the Axograph software. The inventors targeted CA2 PNs based somatic location and size in both deep and superficial layer. […] The liquid junction potential was 1.2 mV and was left uncorrected. Inhibitory currents were recorded in voltage-clamp configuration at +10 mV. […] LS neurons from WT mice were also recorded. […] The inventors used the Axograph software for data acquisition, and Excel (Microsoft) and PRISM (Graphpad) for data analysis.

CRHR1 [2] = assay: Whole-cell patch-clamp recordings from rdLS CRHR1 neurons in acute LS slices; type: cell-based; details: 300 nM stressin-1, bath application; CRHR1-Cre;Ai9 mice; neurons clamped at -60 mV
CRHR1 [3] = assay: Spontaneous IPSC recording from LS cells in acute slices before and after agonist application; type: cell-based, mice; details: 300 nM
Text: The inventors prepared coronal brain slices from 8- to 12-week-old C57BL6/J mice. Animals were killed under isoflurane anesthesia by perfusion into the right ventricle of ice-cold solution containing the following (in mM): 125 NaCl, 2.5 KCI, 22.5 glucose, 25 NaHCOs, 1.25 NaH2PO4, 3 Na Pyruvate, 1 Ascorbic acid, 2 CaCl2 and 1 MgCl2). ACSF was saturated with 95% O2 and 5% CO2, pH 7.4. Brains were cut into 400 µm slices with a vibratome (VT1200S, Leica) in the same ice-cold dissection solution. Slices were then transferred to an incubation chamber containing the same ACSF solution. The chamber was kept at 34°C for 30 min and then at room temperature for at least 1 h before recording. All experiments were performed at room temperature. Slices were mounted in the recording chamber under a microscope. Recordings were acquired using the Multiclamp 700A amplifier (Molecular Device), data acquisition interface ITC-18 (Instrutech) and the Axograph software. […] Whole-cell recordings were obtained from LS neurons in voltage-clamp mode at -70 mV patch pipette (3-5 MΩ) containing the following (in mM): 135 Cs-gluconate, 5 KCI, 0.2 EGTA-Na, 10 HEPES, 2 NaCl, 5 ATP, 0.4 GTP, 10 phosphocreatine, and 5 µM biocytin, pH 7.2 (280-290 mOsm). The liquid junction potential was 1.2 mV and was left uncorrected. Inhibitory currents were recorded in voltage-clamp configuration at +10 mV. The inventors recorded rdLS neurons in septal slices from CRH-Cre mice expressing channelrhodopsin and applied 2 µM SR 95531 (Tocris, # 1262) and 1 µM CGP 55845 (Tocris, #1248) to block GABAA and GABAB receptors, respectively while monitoring the light induced IPSCs in rdLS neurons. The inventors also applied a tetanic light stimulation (3 times 100 pulses of 1 ms at 100 Hz) with or without 300 nM antalarmin (Tocris, #2778) present in the bath. LS neurons from WT mice were also recorded. After 10 min of stable baseline recording, stressin-1 (300 nM, Tocris # 1608) was applied following a 1:1000 dilution from stock solution into the ACSF. The inventors used the Axograph software for data acquisition, and Excel (Microsoft) and PRISM (Graphpad) for data analysis.
The inventors prepared acute LS slices from WT mice and recorded spontaneous inhibitory post-synaptic currents (IPSCs) from rdLS cells in whole-cell configuration before applying the CRHR1 agonist stressin-1 (300 nM, Fig. 15A-B). Stressin-1 application for 15 min decreased the frequency and integrated charge of spontaneous IPSCs (Fig. 15B-C and E). […] This effect was not seen when rLS neurons were recorded for 15 min without application of the agonist (Fig. 16 A1-A5).

CRHR1 [4] = target: T1, CRHR1 (Mus musculus, UniProt P35347); assay: Inhibitory events in rdLS neurons before and after tetanic light stimulation of ILA CRH fibers, with or without antagonist; type: cell-based, mice; details: 300 nM antalarmin in the bath
T1 sequence (P35347 24-415): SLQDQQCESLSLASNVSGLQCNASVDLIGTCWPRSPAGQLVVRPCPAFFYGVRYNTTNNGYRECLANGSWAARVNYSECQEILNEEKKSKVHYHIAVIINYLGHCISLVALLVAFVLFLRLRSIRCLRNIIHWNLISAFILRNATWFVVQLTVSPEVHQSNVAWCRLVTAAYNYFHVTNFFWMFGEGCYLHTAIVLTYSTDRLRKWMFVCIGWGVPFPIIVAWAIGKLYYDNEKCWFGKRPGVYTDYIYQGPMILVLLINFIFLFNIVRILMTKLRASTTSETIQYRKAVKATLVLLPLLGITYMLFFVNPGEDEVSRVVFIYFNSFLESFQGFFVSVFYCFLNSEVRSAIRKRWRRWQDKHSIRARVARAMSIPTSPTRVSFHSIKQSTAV
Text: The inventors prepared coronal brain slices from 8- to 12-week-old C57BL6/J mice. Animals were killed under isoflurane anesthesia by perfusion into the right ventricle of ice-cold solution containing the following (in mM): 125 NaCl, 2.5 KCI, 22.5 glucose, 25 NaHCOs, 1.25 NaH2PO4, 3 Na Pyruvate, 1 Ascorbic acid, 2 CaCl2 and 1 MgCl2). ACSF was saturated with 95% O2 and 5% CO2, pH 7.4. Brains were cut into 400 µm slices with a vibratome (VT1200S, Leica) in the same ice-cold dissection solution. Slices were then transferred to an incubation chamber containing the same ACSF solution. The chamber was kept at 34°C for 30 min and then at room temperature for at least 1 h before recording. All experiments were performed at room temperature. Slices were mounted in the recording chamber under a microscope. Recordings were acquired using the Multiclamp 700A amplifier (Molecular Device), data acquisition interface ITC-18 (Instrutech) and the Axograph software. […] Inhibitory currents were recorded in voltage-clamp configuration at +10 mV. […] LS neurons from WT mice were also recorded. […]
The inventors expressed channel rhodopsin in ILA^CRH neurons and prepared rdLS slices (Fig. 15F). The inventors obtained whole-cell recordings of rdLS neurons and recorded spontaneous inhibitory events (sIPSC) before and after applying a tetanic light stimulation. […]

CRHR1 [5] = assay: Social novelty preference test after cannula infusion in rdLS; type: in vivo, C57BL/6J wild-type mice; details: 2 µg of antalarmin in 0.6 µL of DMSO infused in rdLS
Text: The mouse scalp was removed and scored before a hole was drilled (AP +0.9, ML ±0). A cannula guide extending 2.4 mm below the pedestal (Plastics One #C315G 2-G11-SPC) was lowered slowly and kept in place using superglue. The skull was then covered with dental cement (GC FujiCEM 2) and dummy cannulas (Plastics One #C315DC-SPC) were inserted into the guides. The mice were returned to their home cages and left to recover for at least 1 week. For rdLS infusion, mice were placed under light isoflurane anesthesia (2%) and the dummy cannula was removed. A cannula (Plastics One #C315I-SPC) projecting 2.5 mm from the tip of the cannula guide was mounted. […]
Social novelty preference test. […] Using automatic tracking of the test mice (ANY-Maze, Stoelting), the inventors quantified the time the test mice spent in the immediate area surrounding each cup - and therefore, interacting with each stimulus mice - during learning and recall. Using the interaction time from the recall trial, the inventors calculated a discrimination index for social novelty preference as the following: D! = (time with novel - time with familiar) / total interaction time. […] The inventors also calculated the total time spent interacting with stimulus mice during each trial in order to verify that the sociability drive was not affected. […]

[6] = application for 15 min, rdLS cells, WT mice

- light-induced IPSCs [1]: abolished
Compound: C[C@H](NC[C@H](O)CP(=O)(O)Cc1ccccc1)c1ccc(Cl)c(Cl)c1 [CGP 55845]

Compound: COc1ccc(-c2ccc(=N)n(CCCC(=O)O)n2)cc1 [SR 95531]
- light-induced IPSCs [1]: abolished

Compound: stressin-1
- current in rdLSCRHR1 neurons (CRHR1 [2]): induced an inward current
- IPSCs of vLS neurons (CRHR1 [3]; 15 min, vLS neurons in posterior LS slices): had no effect
- IPSC amplitude (CRHR1 [3]; [6]): trend toward a decrease
- frequency of spontaneous IPSCs (CRHR1 [3]; [6]): decreased
- integrated charge of spontaneous IPSCs (CRHR1 [3]; [6]): decreased

- decrease in inhibition (sIPSC frequency, amplitude, charge; elicited IPSC) following light stimulation (CRHR1 [4]): blocked the disinhibition
Compound: CCCCN(CC)c1nc(C)nc2c1c(C)c(C)n2-c1c(C)cc(C)cc1C [antalarmin]
- preference for the novel mouse (CRHR1 [5]; recall trial): showed no novelty preference
- Total exploration time during learning or recall (CRHR1 [5]; vs. DMSO): not different between groups

— patent EP4516309A1, “CRHR1 AGONISTS FOR USE IN THE TREATMENT OF SOCIAL ANXIETY DISORDERS” (Consejo Superior de Investigaciones Cientificas, priority 2023, dated 2025)
